# In US8962830B2, “Protein kinase inhibitors and methods of treatment” (The Walter and Eliza Hall Institute of Medical Research, priority 2010, dated 2015):
# Target: T1, Src recombinant enzyme, N-terminally His6 tagged full-length human protein (Homo sapiens, UniProt P12931)
# T1 construct: Src recombinant enzyme was purchased as N-terminally His6 tagged full-length human protein; His6 (N); purchased
# Experiment: SRC kinase inhibition assay (AlphaScreen)
# Assay type: biochemical
# Conditions: 80 μM ATP, 90 minutes at 30 degree Celsius
# Procedure: Protocol for SRC Kinase Inhibition Assay. Compounds of the invention were tested for in vitro activity in the following assay: A biotin labeled peptide was used as substrate (amino acid sequence: Biotin-[…]). Src recombinant enzyme was purchased as N-terminally His6 tagged full-length human protein. The 15 μL assay reactions were run in Greiner brand white 384-well low volume plates. […] Compounds were added in a volume of 100 nL from dilution series made up in DMSO, positive and negative control reactions receiving the same volume DMSO without compounds. The plates were sealed with adhesive seals and incubated for 90 minutes at 30 degree Celsius. The reactions were stopped with the detection reagents added at the same time. Product formation was quantified as photochemiluminescence between PerkinElmer AlphaScreenTM beads, using Streptavidin-coated donor and anti-phosphotyrosine (P-[…]) acceptor beads. […] Plates were incubated for 5 hours before being read on a PerkinElmer EnVisionTM plate reader in HTS AlphascreenTM mode. IC50 values were obtained by calculating percent inhibition (% I) for each reaction relative to controls on the same plate (% [SMILES] where CN/CP are the averages of the negative/positive reactions, respectively), then fitting the % I data vs. compound concentration [I] to % I=([…])))) where A is the lower asymptote, B is the upper asymptote, C is the IC50 value, and D is the slope factor.
# T1 sequence (P12931 whole entry): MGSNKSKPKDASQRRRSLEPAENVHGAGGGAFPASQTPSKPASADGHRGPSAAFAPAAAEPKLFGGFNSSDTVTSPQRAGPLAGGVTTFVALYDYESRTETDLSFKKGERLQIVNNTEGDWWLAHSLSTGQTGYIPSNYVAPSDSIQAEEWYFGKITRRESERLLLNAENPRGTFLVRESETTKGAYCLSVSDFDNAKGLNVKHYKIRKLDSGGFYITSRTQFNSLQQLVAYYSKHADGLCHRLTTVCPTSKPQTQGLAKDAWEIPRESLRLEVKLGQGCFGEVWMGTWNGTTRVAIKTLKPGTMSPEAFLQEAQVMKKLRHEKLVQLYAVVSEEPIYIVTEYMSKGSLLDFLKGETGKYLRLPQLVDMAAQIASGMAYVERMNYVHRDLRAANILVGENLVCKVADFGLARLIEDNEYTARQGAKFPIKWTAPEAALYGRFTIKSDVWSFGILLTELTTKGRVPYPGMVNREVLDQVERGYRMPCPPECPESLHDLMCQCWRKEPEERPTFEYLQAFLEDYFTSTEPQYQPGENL
row,Compound,IC50
1,Cc1ccc(-c2nn(C(C)(C)CNC(=O)CCCN)c3ncnc(N)c23)cc1 [85 (compound 85C)],100 to 1000 nM
2,Cc1ccc(-c2nn(C(C)(C)CNC(=O)CCCc3ccccc3)c3ncnc(N)c23)cc1 [Example 20],100 to 1000 nM
3,Cc1ccc(-c2nn(C(C)(C)CN(C)C)c3ncnc(N)c23)cc1 [Example 3],1000 to 10000 nM
4,Cc1ccc(-c2nn(C(C)(C)CNC(N)=S)c3ncnc(N)c23)cc1 [6 (compound 6B)],1 to 100 nM
5,Cc1ccc(-c2nn(C(C)(C)CNC(=O)CCN3CCOCC3)c3ncnc(N)c23)cc1 [Example 37],100 to 1000 nM
6,Cc1ccc(-c2nn(C(C)(C)CNC(=O)c3cnn(-c4ccc(F)cc4)c3C(F)(F)F)c3ncnc(N)c23)cc1 [Example 28],1 to 100 nM
7,Cc1ccc(-c2nn(C(C)(C)CNC(=O)c3cc(N4CCOCC4)ccn3)c3ncnc(N)c23)cc1 [70 (compound 70C)],100 to 1000 nM
8,Cc1ccc(-c2nn(C(C)(C)CNC(=O)CCCc3ccc4c(c3)OCCO4)c3ncnc(N)c23)cc1 [Example 36],100 to 1000 nM
9,Cc1ccc(-c2nn(C(C)(C)CNC(=O)c3cc(-c4ccc(F)cc4)ncn3)c3ncnc(N)c23)cc1 [Example 24],1000 to 10000 nM
10,CC(=O)c1ccc(OCC(=O)NCC(C)(C)n2nc(-c3ccc(C)cc3)c3c(N)ncnc32)cc1 [Example 25],1000 to 10000 nM
11,Cc1ccc(-c2nn(C(C)(C)CNC(=O)c3cccc(N4CCCCC4)c3)c3ncnc(N)c23)cc1 [Example 22],100 to 1000 nM
12,Cc1ccc(-c2nn(C(C)(C)CNC(=O)CC#N)c3ncnc(N)c23)cc1 [Example 19],1 to 100 nM
13,CC(=O)NCC(C)(C)n1nc(-c2ccc(C)cc2)c2c(N)ncnc21 [Example 2],100 to 1000 nM
14,Cc1ccc(-c2nn(C(C)(C)CNC(=O)c3ccc(CCN)cc3)c3ncnc(N)c23)cc1 [10 (compound 10C)],1 to 100 nM
15,Cc1ccc(-c2nn(C(C)(C)CNC(=O)CCCCCNC(=O)OCc3ccccc3)c3ncnc(N)c23)cc1 [Example 15],100 to 1000 nM
16,Cc1ccc(-c2nn(C(C)(C)CNC(=O)c3cccc(N4CCOCC4)c3)c3ncnc(N)c23)cc1 [Example 18],100 to 1000 nM
17,Cc1ccc(-c2nn(C(C)(C)CNC(=N)N)c3ncnc(N)c23)cc1 [5 (compound 5B)],1 to 100 nM
18,COCCC(=O)NCC(C)(C)n1nc(-c2ccc(C)cc2)c2c(N)ncnc21 [Example 17],1 to 100 nM
19,Cc1ccc(-c2nn(C(C)(C)CNC(=O)c3cccn3C)c3ncnc(N)c23)cc1 [Example 33],100 to 1000 nM
20,CCN(CC)c1ccc(C(=O)NCC(C)(C)n2nc(-c3ccc(C)cc3)c3c(N)ncnc32)cc1 [Example 38],100 to 1000 nM

row,Compound,IC50
1,CC(=O)CCCC(=O)NCC(C)(C)n1nc(-c2ccc(C)cc2)c2c(N)ncnc21 [Example 31],100 to 1000 nM
2,Cc1ccc(-c2nn(C(C)(C)CNC(=O)c3cc(N4CCCCC4)ccn3)c3ncnc(N)c23)cc1 [69 (compound 69C)],1 to 100 nM
3,Cc1ccc(-c2nn(C(C)(C)CNC(=O)c3cc(-c4ccco4)on3)c3ncnc(N)c23)cc1 [Example 23],1 to 100 nM
4,CNCC(C)(C)n1nc(-c2ccc(C)cc2)c2c(N)ncnc21 [4 (compound 4C)],100 to 1000 nM
5,Cc1ccc(-c2nn(C(C)(C)CNC(=O)c3cnn(-c4ccc(Br)cc4)c3C(F)(F)F)c3ncnc(N)c23)cc1 [Example 29],100 to 1000 nM
6,Cc1ccc(-c2nn(C(C)(C)CNC(=O)c3ccc(N4CCCCC4)cc3)c3ncnc(N)c23)cc1 [Example 21],100 to 1000 nM
7,Cc1ccc(-c2nn(C(C)(C)CNC(=O)CCCOCc3ccccc3)c3ncnc(N)c23)cc1 [Example 35],100 to 1000 nM
8,Cc1ccc(-c2nn(C(C)(C)CNC(=O)c3ccccc3-n3ccnc3)c3ncnc(N)c23)cc1 [Example 14],100 to 1000 nM
9,Cc1ccc(-c2nn(C(C)(C)CNC(=O)c3cc(C)nn3Cc3ccc(F)cc3)c3ncnc(N)c23)cc1 [Example 27],100 to 1000 nM
10,Cc1ccc(-c2nn(C(C)(C)CNC(=O)c3ccc(CN)cc3)c3ncnc(N)c23)cc1 [13 (compound 13C)],1 to 100 nM
11,Cc1ccc(-c2nn(C(C)(C)CNC(=O)c3cnn(-c4cccc(Cl)c4)c3C(F)(F)F)c3ncnc(N)c23)cc1 [Example 26],1 to 100 nM
12,CC(=O)CCCCC(=O)NCC(C)(C)n1nc(-c2ccc(C)cc2)c2c(N)ncnc21 [Example 30],100 to 1000 nM
13,Cc1ccc(-c2nn(C(C)(C)CNC(=O)c3cccc(C#N)c3)c3ncnc(N)c23)cc1 [Example 34],100 to 1000 nM
14,CC(=O)CCC(=O)NCC(C)(C)n1nc(-c2ccc(C)cc2)c2c(N)ncnc21 [Example 16],1000 to 10000 nM
15,Cc1ccc(-c2nn(C(C)(C)CNC(=O)Cc3ccccc3)c3ncnc(N)c23)cc1 [Example 9],1000 to 10000 nM
16,Cc1ccc(-c2nn(C(C)(C)CNC(C)C)c3ncnc(N)c23)cc1 [Example 8],100 to 1000 nM
17,CCNC(=O)NCC(C)(C)n1nc(-c2ccc(C)cc2)c2c(N)ncnc21 [Example 7],1 to 100 nM
18,CCOc1ccc(C(=O)NCC(C)(C)n2nc(-c3ccc(C)cc3)c3c(N)ncnc32)cc1Cl [Example 32],100 to 1000 nM
19,Cc1ccc(-c2nn(C(C)(C)CNS(=O)(=O)c3ccccn3)c3ncnc(N)c23)cc1 [68 (compound 68B)],100 to 1000 nM
20,Cc1ccc(-c2nn(C(C)(C)CNC(=O)CCCCCN)c3ncnc(N)c23)cc1 [84 (compound 84C)],100 to 1000 nM

# Next, values leading:
row,IC50,Compound
1,100 to 1000 nM,Cc1ccc(-c2nn(C(C)(C)CNC(=O)c3ccnnc3)c3ncnc(N)c23)cc1 [Example 46]
2,100 to 1000 nM,Cc1ccc(-c2nn(C(C)(C)CNC3=NCCN3)c3ncnc(N)c23)cc1 [Example 78]
3,100 to 1000 nM,Cc1ccc(-c2nn(C(C)(C)CNC(=O)c3ccc(F)cc3)c3ncnc(N)c23)cc1 [Example 53]
4,1000 to 10000 nM,Cc1ccc(-c2nn(C(C)(C)CNC(=O)c3cccc(F)c3)c3ncnc(N)c23)cc1 [Example 55]
5,100 to 1000 nM,Cc1ccc(-c2nn(C(C)(C)CNC(=O)c3ccccc3F)c3ncnc(N)c23)cc1 [Example 54]
6,1 to 100 nM,Cc1ccc(-c2nn(C(C)(C)CNC(=O)c3cc(CN4CCCCC4)ccn3)c3ncnc(N)c23)cc1 [Example 82]
7,1000 to 10000 nM,Cc1ccc(-c2nn(C(C)(C)CNC(=O)c3nc(Cl)ccc3Br)c3ncnc(N)c23)cc1 [Example 49]
8,1 to 100 nM,Cc1ccc(-c2nn(C(C)(C)CNC(=O)c3ncccn3)c3ncnc(N)c23)cc1 [Example 58]
9,100 to 1000 nM,Cc1ccc(-c2nn(C(C)(C)CNC(=O)c3cnc4ccccc4n3)c3ncnc(N)c23)cc1 [Example 51]
10,1 to 100 nM,Cc1ccc(-c2nn(C(C)(C)CNC(=N)NC#N)c3ncnc(N)c23)cc1 [Example 81]
11,1 to 100 nM,Cc1ccc(-c2nn(C(C)(C)CNC(=O)c3cc(CN4CCOCC4)ccn3)c3ncnc(N)c23)cc1 [Example 83]
12,100 to 1000 nM,Cc1ccc(-c2nn(C(C)(C)CNc3ncccn3)c3ncnc(N)c23)cc1 [Example 88]
13,100 to 1000 nM,Cc1ccc(-c2nn(C(C)(C)CNC(=O)c3cccc(Br)n3)c3ncnc(N)c23)cc1 [Example 40]
14,1000 to 10000 nM,Cc1ccc(-c2nn(C(C)(C)CNC(=O)c3ccc(Br)cn3)c3ncnc(N)c23)cc1 [Example 45]
15,1 to 100 nM,COCCOc1ccnc(C(=O)NCC(C)(C)n2nc(-c3ccc(C)cc3)c3c(N)ncnc32)c1 [Example 89]
16,1000 to 10000 nM,Cc1ccc(-c2nn(C(C)(C)CNC(=O)c3ccncc3)c3ncnc(N)c23)cc1 [Example 67]
17,100 to 1000 nM,Cc1ccc(-c2nn(C(C)(C)CNC(=O)c3ccnc(Cl)n3)c3ncnc(N)c23)cc1 [Example 44]
18,1 to 100 nM,Cc1ccc(-c2nn(C(C)(C)CNC(=O)c3ccc(C)cn3)c3ncnc(N)c23)cc1 [Example 72]
19,100 to 1000 nM,Cc1ccc(-c2nn(C(C)(C)CNC(=O)c3cccc(F)n3)c3ncnc(N)c23)cc1 [Example 41]
20,100 to 1000 nM,Cc1ccc(-c2nn(C(C)(C)CNC(=O)CCOc3ccccc3)c3ncnc(N)c23)cc1 [Example 39]
21,100 to 1000 nM,Cc1ccc(-c2nn(C(C)(C)CNC(=O)c3ccc(Cl)nc3Cl)c3ncnc(N)c23)cc1 [Example 47]
22,100 to 1000 nM,CC(=N)NCC(C)(C)n1nc(-c2ccc(C)cc2)c2c(N)ncnc21 [Example 80]
23,100 to 1000 nM,Cc1ccc(-c2nn(C(C)(C)CNC(=O)c3nc(Cl)ccc3Cl)c3ncnc(N)c23)cc1 [Example 48]
24,100 to 1000 nM,Cc1ccc(-c2nn(C(C)(C)CNC(=O)c3ccnc(Cl)c3)c3ncnc(N)c23)cc1 [Example 43]
